Reference: US12409150B2, “pH-sensitive carbon nanoparticles, preparation method therefor, and drug delivery using same” (PCE Tech Co., Ltd., priority 2018, dated 2025)

Legend:
[1] = cited from earlier work
[2] = test system: CT-26 (Mouse colon cancer) cells; assay: In vivo photodynamic anticancer and immune anticancer effect, both cancer tissues for 15 days; set-up: species or system BALB/c mice; settings: 0.4 mg/ml based on chlorine e6 i.v.
Excerpt: In order to confirm the anticancer effect in vivo and the anticancer effect due to photodynamic-based immunity induction of the pH-sensitive photodynamic therapeutic agent prepared in the above Example 5, CT-26 (Mouse colon cancer) cells were inoculated subcutaneously in the left leg of BALB/c mice (1×10^6 cells) and the right leg (5×10^5 cells). When the size of the cancer tissue reaches about 50 mm^3, a pH-sensitive photodynamic therapeutic agent, chlorine e6 alone formulation as a comparative group, pH-sensitive carbon nanoparticles without drug encapsulation, and PBS were injected intravenously at 0.4 mg/ml based on chlorine e6, and after 24 hours after intravenous injection, only the left cancer tissue was irradiated with a laser. This was repeated twice, and the laser was irradiated for 1000 seconds (100 J/cm^2) with an energy of 100 mW/cm^2. By measuring the size of both cancer tissues for 15 days, the photodynamic anticancer effect and the resulting immune anti-cancer effect were confirmed.

[3] = test system: CT-26 (Mouse colon cancer) cells; assay: Photodynamic cancer cell killing at pH 6.5, MTT assay; settings: pH 6.5, 1 μg/ml based on chlorine e6, 670 nm laser irradiated (+), 2 J/cm^2
Experimental: In order to confirm the cancer cell killing effect of the pH-sensitive photodynamic therapeutic agent prepared in the above Example 5 at a cancer environment pH of 6.5, CT-26 (Mouse colon cancer) cells were used. Samples of the pH-sensitive carbon nanoparticle-based photodynamic therapeutic agent and chlorine e6 alone as other comparative group and carbon nanoparticles without pH sensitivity (Comparative Example 1) were treated with 1 μg/ml based on the concentration of chlorine e6 in the pH 6.5 culture medium, equally and a 670 nm laser was irradiated thereto. The laser was irradiated for […] (2 J/cm^2) with an energy of 50 mW/cm^2. Cell death was performed using the MTT assay, and analyzed at 570 nm using a microplate reader.

[4] = Active oxygen generation, singlet oxygen sensor green (SOSG), 670 nm laser; settings: for singlet oxygen generation: 670 nm laser, 20 mW/cm^2
Experimental: A singlet oxygen sensor green (SOSG) capable of detecting singlet oxygen was used to confirm the generation of active oxygen in particles of a pH-sensitive photodynamic therapeutic agent prepared in the above Example 5.
Specifically, 1 ml of a solution in which SOSG was dissolved and 1 ml of a solution in which a pH-sensitive carbon nanoparticle-based photodynamic therapeutic agent was dissolved were mixed, and a 670 nm laser was irradiated. The laser was irradiated with an energy of 20 mW/cm^2, and the fluorescence intensity was measured using a fluorescence spectrophotometer every 10 seconds (0.2 J/cm^2) to confirm the generation of active oxygen. In addition, in order to measure the efficiency of generating reactive oxygen species according to pH, 1 ml of a solution in which a pH-sensitive photodynamic therapeutic agent having pH 7.4, the pH in vivo and a pH of 6.5 in a cancer environment, was dissolved and 1 ml of a SOSG solution were mixed, and a 670 nm laser is irradiated. The laser was irradiated with an energy of 50 mW/cm^2, and the fluorescence intensity was measured using a fluorescence spectrophotometer every 10 seconds (0.5 J/cm^2) to confirm the generation of active oxygen species.

[5] = test system: CT-26 (Mouse colon cancer) cells; assay: In vivo behavior, in vivo fluorescence imaging for 24 hours; set-up: species or system BALB/c nude mice; settings: intravenous, 0.4 mg/ml based on chlorine e6, 24 hours
Experimental: In order to confirm the in vivo behavior of the pH-sensitive photodynamic therapeutic agent prepared in the above Example 5, CT-26 (Mouse colon cancer) cells were inoculated into BALB/c nude mice. When the size of the cancer tissue reaches about 50-100 mm^3, a pH-sensitive photodynamic therapeutic agent (Ce6@CDs) and chlorine e6 alone formulation (Free Ce6) as a comparative group were injected intravenously at 0.4 mg/ml based on chlorine e6, and for 24 hours after then, the in vivo behavior was confirmed using in vivo fluorescence imaging (fluorescence-labeled bioimaging instrument) hourly.

[6] = test system: CT-26 (Mouse colon cancer) cells; assay: Intracellular influx according to pH, confocal microscopy; type: cell-based; settings: pH 7.4, 4 hours
Experimental: In order to confirm the influx effect into cancer cells at pH 7.4 and pH 6.5 using the pH-sensitive photodynamic therapeutic agent prepared in the above Example 5, CT-26 (Mouse colon cancer) cells were used. The pH-sensitive carbon nanoparticle-based photodynamic therapeutic agent was treated for 4 hours in the culture solutions of pH 7.4 and pH 6.5, respectively, and chlorine e6 was treated alone as a control group for comparative evaluation. The intracellular influx was analyzed by fluorescence (460, 665 nm) of carbon nanoparticles and chlorine e6 using confocal microscopy.

[7] = test system: HCT-116 (Human colon cancer) cells; assay: Inhibition of cancer growth in vivo, cancer tissue size for 15 days; set-up: species or system BALB/c mice; settings: intravenous, 2 mg/ml based on doxorubicin
Experimental: After that, the size of the cancer tissue was measured for 15 days to confirm the anticancer effect.

[8] = test system: SKBR-3 (human breast cancer); assay: Cancer cell killing, MTT assay at pH 7.4 and pH 6.5; type: cell-based; settings: regardless of pH (7.4, 6.5)
Experimental: (§1) In order to confirm the cancer cell killing effect of the CA and API-based pH-sensitive carbon nanoparticle drug carrier encapsulated with doxorubicin prepared in Example 4, HCT-116 (human colon cancer), SKBR-3 (human breast cancer), PANC-1 (human pancreas cancer) cells were used. The pH-sensitive carbon nanoparticle drug carrier was treated by concentration of doxorubicin in culture solutions of pH 7.4 and pH 6.5, respectively, and the comparison group was comparatively evaluated by treating doxorubicin alone by concentration. Cell death was performed using the MTT assay, and analyzed at 490 nm using a microplate reader.

[9] = test system: PANC-1 (human pancreas cancer); assay: as above; type: cell-based; settings: regardless of pH (7.4, 6.5)
Experimental: as §1

[10] = test system: HCT-116 (human colon cancer); assay: as above; type: cell-based; settings: regardless of pH (7.4, 6.5)
Experimental: as §1

Molecule: NCCCn1ccnc1 [API, 1-(3-aminopropyl) imidazole]
- pKa value [1]: 6.9

Molecule: C=Cc1c(C)c2cc3nc(c(CC(=O)O)c4[nH]c(cc5nc(cc1[nH]2)C(C)=C5CC)c(C)c4C(=O)O)[C@@H](CCC(=O)O)[C@@H]3C [Free Ce6, chlorine e6]
- cancer growth regardless of laser irradiation [2]: cancer rapidly grows
- cell death rate [3]: 50%
- singlet oxygen generation [4]: hardly produce singlet oxygen
- singlet oxygen generation according to pH ([4]; pH 7.4 and pH 6.5, 670 nm laser, 50 mW/cm^2): hardly generated singlet oxygen
- in vivo fluorescence behavior [5]: fluorescence quickly disappeared
- degree of influx into cells [6]: similar

Molecule: COc1cccc2c1C(=O)c1c(O)c3c(c(O)c1C2=O)C[C@@](O)(C(=O)CO)C[C@@H]3O[C@H]1C[C@H](N)[C@H](O)[C@H](C)O1 [Free DOX, doxorubicin]
- cancer growth in vivo [7]: cancer continued to grow
- concentration at which cells died [8]: about 50 ug/ml
- concentration at which cells died [9]: about 50 ug/ml
- concentration at which cells died [10]: about 50 ug/ml

Molecule: pheophorbide a [Pheo A]
- singlet oxygen generation [4]: hardly produce singlet oxygen
